≈ marks a conversion by molar mass, not a printed value. Read-outs that look alike come from different tables or passages of the source.
Tests used:
[1] = tested on: SW480 human colon adenocarcinoma cells; experiment: Cell viability, sulforhodamine B (SRB) assay, SW480 cells; format: cell-based; details: for IC50: Homo sapiens, SW480 cells, SRB; for SI (selectivity index), 24 h: ratio of IC50 against CHO-K1 to IC50 against SW480, 24 h; for SI (selectivity index), 48 h: ratio of IC50 against CHO-K1 to IC50 against SW480, 48 h
Method: (§1) Biological assays were performed using an adenocarcinoma colon cancer cell line (SW480) and non-malignant cells (CHO-K1). These were obtained from the European Collection of Authenticated Cell Cultures (ECACC, England) and maintained in Dulbecco’s Modified Eagle Medium, supplemented with 10% heat-inactivated (56 °C) horse serum, 1% penicillin/streptomycin and 1% non-essential amino acids (Gibco Invitrogen, Carlsbad, USA). For all experiments, horse serum was reduced to 3%, and the medium was supplemented with […] transferrin, 5 ng/mL selenium and […] insulin (ITS-defined medium; Gibco, Invitrogen, Carlsbad, USA) ([32]).
(§2) The cell viability of the synthesized hybrids, lead, and reference compounds was evaluated through Sulforhodamine B (SRB) assay, a colorimetric test that is based on staining of total cellular protein of adherent cells. The cells were seeded to a ﬁnal density of 20.000 cells/well in 96-well tissue culture plates and incubated at 37 °C in a humidified atmosphere at 5% CO2. […] After treatment, the cells were fixed with trichloroacetic acid (50% v/v) (MERCK) for a period of one h at 4 °C. The cell proteins were determined by staining with 0.4% (w/v) SRB (Sigma-Aldrich, United States), then they were washed with 1% acetic acid for the removal of unbound SRB and left for air-drying. Protein bound SRB was solubilized in 10 mM Tris-base and the absorbance was measured at 492 nm in a microplate reader (Mindray MR-96A) ([33]). All of the experiments were performed at least in quintuplicate.

[2] = tested on: non-malignant CHO-K1 cell line; experiment: Cell viability, sulforhodamine B (SRB) assay, CHO-K1 cells; format: cell-based; details: Cricetulus griseus
Method: as §1, §2

SW480 cells [3] = experiment: Mitochondrial membrane potential (ΔΨm), DiOC6/PI flow cytometry; format: cell-based, human; details: SW480, treated at IC50, 48 h; for Mitochondrial membrane depolarization in words: vs control; for PI+ cells: cells in process of death; for DiOC6 low cells: cells that lose membrane polarization; for DiOC6 high cells: live cells with high membrane polarization
Method: Mitochondrial membrane permeability changes were assessed through the fluorescent dye DiOC6 (3,3’-dihexyloxacarbocyanine iodide, Thermo Fisher Scientiﬁc, Waltham, MA, USA), and propidium iodide (PI). The cells were seeded to a ﬁnal density of 2.5 x 10^5 cells/well in 6-well tissue culture plates and were allowed to grow for 24 h. […] The cells were collected to analyze 10,000 events by ﬂow cytometry with excitation at 488 nm and detection of the emission with the green (530/15 nm) and the red (610/20 nm) ﬁlters. This method allowed us quantifying cells with depolarized mitochondrial membrane ([34]).

SW480 cells [4] = experiment: Cell cycle analysis, propidium iodide flow cytometry; format: cell-based, human; details: SW480, treated at IC50, 48 h
Method: Cell cycle distribution was analyzed by labelling cells with propidium iodide (PI). Assays were carried out as described by Nicoletti et al. (1991). In brief, cells were seeded in 6-well tissue culture plates at a density of 2.5 x 10^5 cells/well, incubated at 37 °C in a 5% CO2 atmosphere. […] After the treatment, the cells were collected by scraping and the centrifuged cell pellet was resuspended with phosphate buffered saline (PBS). The cell suspension was fixed in 1.8 mL 70% ethanol at 4°C overnight, afterward, these were centrifuged, washed twice in PBS and resuspended in 300 µL of PBS containing 0.25 mg/mL RNAse (Type I-A, Sigma-Aldrich, Germany) and 0.1 mg/mL PI. Following the incubation in the dark at room temperature for 30 min, the PI ﬂuorescence of 10,000 cells was analyzed using a FACS Canto II ﬂow cytometer and the software BD FACS Diva 6.1.3. (BD Biosciences, San Jose). PI signal was analyzed with excitation at 488 nm, using a Sapphire laser, and fluorescence was detected at 610nm. The cell clumps were excluded with the PI-Area vs PI-Width signals. The cell cycle model was ﬁxed using the software FlowJo 7.6.2 (Ashland, OR, USA), applying the Dean-Jett-Fox model ([34], [35]).

SW480 cells [5] = experiment: Antiproliferative activity, SRB assay over 0-8 days; format: cell-based, human; details: 0.1-0.55 mM, p ≤ 0.05 vs control
Method: Briefly, the cells were seeded to a ﬁnal density of 2500 cells/well in 96-well tissue culture plates and incubated in the same conditions described for viability. […] Culture media was replaced every 48 h. After each incubation time, the cells were fixed, stained, and read as previously described for this technique ([32]).

[6] = tested on: human gastric carcinoma cell line BGC-823; set-up: method as in PMID 19272773; details: cited from earlier work
[7] = tested on: human nasopharyngeal carcinoma cell line KB; set-up: method as in PMID 19272773; details: cited from earlier work
[8] = tested on: human hepatoma cell line BEL-7402; set-up: method as in PMID 19272773; details: cited from earlier work
[9] = 24 h treatment, read-out: IC50 (mM) SW480 cells, 24 h
[10] = 48 h treatment, read-out: IC50 (mM) SW480 cells, 48 h
[11] = 24 h treatment, read-out: IC50 (mM) CHO-K1 cells, 24 h
[12] = 48 h treatment, read-out: IC50 (mM) CHO-K1 cells, 48 h

SMILES | IC50 [1, 9] [mM] | IC50 [1, 10] [mM] | SI (selectivity index), 24 h [1] | SI (selectivity index), 48 h [1] | IC50 [2, 11] [mM] | IC50 [2, 12] [mM] | Mitochondrial membrane depolarization in words (SW480 cells [3]) | PI+ cells (SW480 cells [3]) | DiOC6 low cells (SW480 cells [3]) | DiOC6 high cells (SW480 cells [3]) | Cells in G2/M phase (SW480 cells [4]) [%] | Effect on cell cycle in words (SW480 cells [4]) | melting point [°C] | Day from which significant antiproliferative activity was displayed (SW480 cells [5]) [days] | Cells in G0/G1 phase (SW480 cells [4]) [%] | Cells in S phase (SW480 cells [4]) [%] | IC50 against BGC-823 [6] [µg/mL] | IC50 against KB [7] [µg/mL] | IC50 against BEL-7402 [8] [µg/mL] | Cytotoxic activity in words ([1]; at 24 h and 48 h after treatment)
C=CCSC[C@H](NC(=O)/C=C/c1ccc(O)c(O)c1)C(=O)OC [9a, Methyl N-[(2E)-3-(3,4-dihydroxyphenyl)-2-propenoyl]-S-2-propen-1-yl-L-cysteinate] | 0.24 | 0.12 | 2.0 | 1.5 | 0.47 | 0.18 | highest activity | 8,16% | 62,9% | 29,4% | 18.8 | cell cycle arrest in G2/M phase | 101 to 103 | – | – | – | – | – | – | –
C=CCSC[C@H](N)C(=O)OCCC [3c, Propyl S-prop-2-en-1-ylcysteinate] | > 10 | 1.28 | <0.15 | 0.97 | 1.5 | 1.24 | – | – | – | – | – | – | 115 to 117 | – | – | – | – | – | – | –
C=CCSC[C@H](NC(=O)/C=C/c1ccc(O)c(O)c1)C(=O)OCCCCC [9e, Pentyl N-[(2E)-3-(3,4-dihydroxyphenyl)-2-propenoyl]-S-2-propen-1-yl-L-cysteinate] | 0.2 | 0.12 | – | – | 0.21 | > 10 | highest activity | 8,32% | 59,9% | 32,5% | 22.3 | cell cycle arrest in G2/M phase | – | 2 | – | – | – | – | – | –
C=CCSC[C@H](N)C(=O)O [S-Allylcysteine, reference compound] | > 10 | 0.38 | >1.0 | >26.32 | > 10 | > 10 | – | – | – | – | – | – | – | – | – | – | – | – | – | –
C=CCSC[C@H](NC(=O)/C=C/c1ccc(OC(C)=O)c(OC(C)=O)c1)C(=O)OCCCC [6d, Butyl N-{(2E)-3-[3,4-bis(acetyloxy)phenyl]prop-2-enoyl}-S-prop-2-en-1-ylcysteinate] | 2.79 | > 10 | – | – | 0.21 | 9.97 | – | – | – | – | – | – | – | – | – | – | – | – | – | –
C=CCSC[C@H](NC(=O)/C=C/c1ccc(O)c(O)c1)C(=O)OCCC [9c, Propyl N-[(2E)-3-(3,4-dihydroxyphenyl)-2-propenoyl]-S-2-propen-1-yl-L-cysteinate] | 0.1 | 0.11 | – | – | 0.12 | > 10 | – | 9,13% | 45,0% | 44,5% | – | S- phase | – | – | 67.3 | 23 | – | – | – | –
C=CCSC[C@H](NC(=O)/C=C/c1ccc(OC(C)=O)c(OC(C)=O)c1)C(=O)OCCC [6c, Propyl N-{(2E)-3-[3,4-bis(acetyloxy)phenyl]prop-2-enoyl}-S-prop-2-en-1-ylcysteinate] | 1.02 | > 10 | 0.26 | <0.13 | 0.27 | 1.25 | – | – | – | – | – | – | 80 to 82 | – | – | – | – | – | – | –
O=c1[nH]cc(F)c(=O)[nH]1 [5-Fluorouracil, 5-fluorouracil, reference compound] | 0.062 | 0.035 | – | 1.34 | 0.091 | 0.048 | – | – | – | – | – | – | – | – | – | – | – | – | – | –
C=CCSC[C@H](NC(=O)/C=C/c1ccc(OC(C)=O)c(OC(C)=O)c1)C(=O)OC [6a, Methyl N-{(2E)-3-[3,4-bis(acetyloxy)phenyl]prop-2-enoyl}-S-prop-2-en-1-ylcysteinate] | 0.67 | > 10 | – | – | 2.77 | 7.83 | – | – | – | – | – | – | – | – | – | – | – | – | – | –
C=CCSC[C@H](NC(=O)/C=C/c1ccc(O)c(O)c1)C(=O)OCCCC [9d, Butyl N-[(2E)-3-(3,4-dihydroxyphenyl)-2-propenoyl]-S-2-propen-1-yl-L-cysteinate] | 0.11 | 0.15 | >90.91 | >66.67 | > 10 | > 10 | – | – | – | – | – | – | 119 to 121 | 4 | – | – | – | – | – | –
Cc1cccc(NC(=O)/C(C#N)=C/c2cc(O)c(O)c([N+](=O)[O-])c2)c1 [cyanoamide derivative 5] | – | – | – | – | – | – | – | – | – | – | – | – | – | – | – | – | 5.6 (≈ 16.5 µM) | 13.1 (≈ 38.6 µM) | 12.5 (≈ 36.8 µM) | –
C=CCSC[C@H](NC(=O)/C=C/c1ccc(O)c(O)c1)C(=O)OCC [9b, Ethyl N-[(2E)-3-(3,4-dihydroxyphenyl)-2-propenoyl]-S-2-propen-1-yl-L-cysteinate] | 0.93 | 0.12 | – | – | > 10 | > 10 | – | 21,9% | 36,5% | 42,0% | – | did not have any impact on the cell cycle | – | – | – | – | – | – | – | –
C=CCSC[C@H](NC(=O)/C=C/c1ccc(OC(C)=O)c(OC(C)=O)c1)C(=O)OCCCCC [6e, Pentyl N-{(2E)-3-[3,4-bis(acetyloxy)phenyl]prop-2-enoyl}-S-prop-2-en-1-ylcysteinate] | 0.68 | 0.18 | 0.40 | 10.3 | 0.26 | 1.84 | – | 9,38% | 39,9% | 51,0% | 22.7 | cell cycle arrest in G2/M phase | 101 to 103 | 2 | – | – | – | – | – | –
O=C(O)/C=C/c1ccc(O)c(O)c1 [Caffeic acid] | 7.06 | 3.47 | >1.42 | >2.88 | > 10 | > 10 | – | – | – | – | – | – | – | – | – | – | – | – | – | –
C=CCSC[C@H](N)C(=O)OC [3a, S-Allylcysteine methyl ester] | > 10 | > 10 | <0.19 | – | 1.85 | > 10 | – | – | – | – | – | – | 114 to 116 | – | – | – | – | – | – | –
C=CCSC[C@H](NC(=O)/C=C/c1ccc(OC(C)=O)c(OC(C)=O)c1)C(=O)OCC [6b, Ethyl N-{(2E)-3-[3,4-bis(acetyloxy)phenyl]prop-2-enoyl}-S-prop-2-en-1-ylcysteinate] | > 10 | > 10 | – | – | 3.84 | > 10 | – | – | – | – | – | – | – | – | – | – | – | – | – | did not exhibit activity
